Each compound was assayed on HEK293T cells carrying the ATF4 luciferase reporter (assay: ATF4-Luc assay, in vitro model of Vanishing Cell White Matter Disease (VWMD)). Conditions: Homo sapiens, HEK-293T, 1 μg/mL tunicamycin, 7 hours, One Glo luminescence.
Assay type: cell-based
Summary of the method: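 Stable HEK293T line with human ATF4 5′-UTR–firefly luciferase reporter treated with 1 μg/mL tunicamycin plus 200 nM compound for 7 h. Luminescence read; EC50 derived.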

Question: For Cc1nc(C(=O)NC23CC(NC(=O)COc4ccc(Cl)c(F)c4)(C2)C3)co1 [Compound 249, N-{3-[2-(4-chloro-3-fluorophenoxy)acetamido]bicyclo[1.1.1]pentan-1-yl}-2-methyl-1,3-oxazole-4-carboxamide], which EC50 is on record?
Answer: The EC50 was 50 to 250 nM.

Question: CCc1nc(C(=O)NC23CC(NC(=O)COc4ccc(Cl)c(Cl)c4)(C2)C3)cs1 [Compound 698, N-{3-[2-(3,4-dichlorophenoxy)acetamido]bicyclo[1.1.1]pentan-1-yl}-2-ethyl-1,3-thiazole-4-carboxamide] was tested. Which EC50 did it give?
Answer: The EC50 was < 50 nM.

Question: With Cc1cc(C(=O)NC23CC(NC(=O)COc4ccc(Cl)c(F)c4)(C2)C3)n(C)n1 [Compound 241, N-{3-[2-(4-chloro-3-fluorophenoxy)acetamido]bicyclo[1.1.1]pentan-1-yl}-1,3-dimethyl-1H-pyrazole-5-carboxamide] as the compound, how does the EC50 read?
Answer: Its EC50 is < 50 nM.

Question: With CCCOc1ccc(C(=O)NC23CC(NC(=O)COc4ccc(Cl)c(F)c4)(C2)C3)cc1 [Compound 316, N-{3-[2-(4-chloro-3-fluorophenoxy)acetamido]bicyclo[1.1.1]pentan-1-yl}-4-propoxybenzamide] as the compound, how does the EC50 read?
Answer: Its EC50 is 50 to 250 nM.

Question: How did the EC50 turn out when Cn1ncc(C(=O)NC23CC(NC(=O)COc4ccc(Cl)c(F)c4)(C2)C3)c1C(F)(F)F [Compound 874, N-{3-[2-(4-chloro-3-fluorophenoxy)acetamido]bicyclo[1.1.1]pentan-1-yl}-1-methyl-5-(trifluoromethyl)-1H-pyrazole-4-carboxamide] was run?
Answer: Its EC50 is > 2000 nM.

Question: With CC(C)n1ccc(C(=O)NC23CC(NC(=O)COc4ccc(Cl)c(F)c4)(C2)C3)n1 [Compound 819, N-{3-[2-(4-chloro-3-fluorophenoxy)acetamido]bicyclo[1.1.1]pentan-1-yl}-1-(propan-2-yl)-1H-pyrazole-3-carboxamide] as the compound, how does the EC50 read?
Answer: Its EC50 is 250 to 1000 nM.

Question: Which EC50 does the source give for COCc1ccccc1C(=O)NC12CC(NC(=O)COc3ccc(Cl)c(F)c3)(C1)C2 [Compound 550, N-{3-[2-(4-chloro-3-fluorophenoxy)acetamido]bicyclo[1.1.1]pentan-1-yl}-2-(methoxymethyl)benzamide] here?
Answer: The EC50 was 1000 to 2000 nM.

Question: For Cc1cc(C(=O)NC23CC(NC(=O)COc4ccc(Cl)c(F)c4)(C2)C3)ns1 [Compound 677, N-{3-[2-(4-chloro-3-fluorophenoxy)acetamido]bicyclo[1.1.1]pentan-1-yl}-5-methyl-1,2-thiazole-3-carboxamide], which EC50 is on record?
Answer: The EC50 was 250 to 1000 nM.

Question: With NS(=O)(=O)c1ccc(C(=O)NC23CC(NC(=O)COc4ccc(Cl)c(F)c4)(C2)C3)o1 [Compound 905, N-{3-[2-(4-chloro-3-fluorophenoxy)acetamido]bicyclo[1.1.1]pentan-1-yl}-5-sulfamoylfuran-2-carboxamide] as the compound, how does the EC50 read?
Answer: Its EC50 is > 2000 nM.

Question: With Cc1nc(C(=O)NC23CCC(NC(=O)COc4ccc(Cl)c(F)c4)(CC2)C(O)C3)c(C)o1 (stereo not drawn) [Compound 472, N-{4-[2-(4-chloro-3-fluorophenoxy)acetamido]-3-hydroxybicyclo[2.2.2]octan-1-yl}-2,5-dimethyl-1,3-oxazole-4-carboxamide] as the compound, how does the EC50 read?
Answer: Its EC50 is 250 to 1000 nM.

Question: Cc1ncc(C(=O)NC23CCC(NC(=O)COc4ccc(Cl)c(F)c4)(CC2)[C@@H](O)C3)nc1C [Compound 672, N-{(3S)-4-[2-(4-chloro-3-fluorophenoxy)acetamido]-3-hydroxybicyclo[2.2.2]octan-1-yl}-5,6-dimethylpyrazine-2-carboxamide] was tested. Which EC50 did it give?
Answer: Its EC50 is 50 to 250 nM.

Question: With O=C(COc1ccc(Cl)c(F)c1)NC12CC(NC(=O)c3csc(N4CCOCC4)n3)(C1)C2 [Compound 771, N-{3-[2-(4-chloro-3-fluorophenoxy)acetamido]bicyclo[1.1.1]pentan-1-yl}-2-(morpholin-4-yl)-1,3-thiazole-4-carboxamide] as the compound, how does the EC50 read?
Answer: The EC50 was > 2000 nM.

Question: O=C(COc1ccc(Cl)c(F)c1)NC12CC(NC(=O)c3cnc(C(F)F)cn3)(C1)C2 [Compound 134, N-{3-[2-(4-chloro-3-fluorophenoxy)acetamido]bicyclo[1.1.1]pentan-1-yl}-5-(difluoromethyl)pyrazine-2-carboxamide] was tested. Which EC50 did it give?
Answer: Its EC50 is < 50 nM.

Question: For O=C(COc1ccc(Cl)c(F)c1)NC12CCC(NC(=O)c3ccc(F)cn3)(CC1)CC2O (stereo not drawn) [Compound 230, N-{4-[2-(4-chloro-3-fluorophenoxy)acetamido]-3-hydroxybicyclo[2.2.2]octan-1-yl}-5-fluoropyridine-2-carboxamide], which EC50 is on record?
Answer: Its EC50 is 50 to 250 nM.

Question: With Cc1cc(C(=O)NC23CC(NC(=O)COc4ccc(Cl)c(Cl)c4)(C2)C3)on1 [Compound 431, N-{3-[2-(3,4-dichlorophenoxy)acetamido]bicyclo[1.1.1]pentan-1-yl}-3-methyl-1,2-oxazole-5-carboxamide] as the compound, how does the EC50 read?
Answer: The EC50 was 50 to 250 nM.

Question: With O=C(COc1ccc(Cl)c(F)c1)NC12CC(NC(=O)c3csc(C4CC4)n3)(C1)C2 [Compound 655, N-{3-[2-(4-chloro-3-fluorophenoxy)acetamido]bicyclo[1.1.1]pentan-1-yl}-2-cyclopropyl-1,3-thiazole-4-carboxamide] as the compound, how does the EC50 read?
Answer: The EC50 was 50 to 250 nM.

Question: CC(=O)Nc1c(C)nn(C)c1C(=O)NC12CCC(NC(=O)COc3ccc(Cl)c(F)c3)(CC1)C(O)C2 (stereo not drawn) [Compound 505, 4-acetamido-N-{4-[2-(4-chloro-3-fluorophenoxy)acetamido]-3-hydroxybicyclo[2.2.2]octan-1-yl}-1,3-dimethyl-1H-pyrazole-5-carboxamide] was tested. Which EC50 did it give?
Answer: Its EC50 is > 2000 nM.

Question: How did the EC50 turn out when CCc1cc(C(=O)NC23CCC(NC(=O)COc4ccc(Cl)c(Cl)c4)(CC2)[C@@H](O)C3)on1 [Compound 694, N-{(3S)-4-[2-(3,4-dichlorophenoxy)acetamido]-3-hydroxybicyclo[2.2.2]octan-1-yl}-3-ethyl-1,2-oxazole-5-carboxamide] was run?
Answer: The EC50 was < 50 nM.

Question: How did the EC50 turn out when Cc1cc2c(NC34CC(NC(=O)COc5ccc(F)cc5)(C3)C4)nccn2n1 [Compound 639, 2-(4-fluorophenoxy)-N-{3-[(2-methylpyrazolo[1,5-a]pyrazin-4-yl)amino]bicyclo[1.1.1]pentan-1-yl}acetamide] was run?
Answer: Its EC50 is 50 to 250 nM.

Question: With Cn1cccc1C(=O)NC12CC(NC(=O)COc3ccc(Cl)c(F)c3)(C1)C2 [Compound 821, N-{3-[2-(4-chloro-3-fluorophenoxy)acetamido]bicyclo[1.1.1]pentan-1-yl}-1-methyl-1H-pyrrole-2-carboxamide] as the compound, how does the EC50 read?
Answer: Its EC50 is > 2000 nM.

Question: With Cc1cc(C(=O)NC23CC(NC(=O)COc4ccc(Cl)c(F)c4)(C2)C3)on1 [Compound 295, N-{3-[2-(4-chloro-3-fluorophenoxy)acetamido]bicyclo[1.1.1]pentan-1-yl}-3-methyl-1,2-oxazole-5-carboxamide] as the compound, how does the EC50 read?
Answer: Its EC50 is 250 to 1000 nM.

Question: With O=C(COc1ccc(Cl)c(F)c1)NC12CC(Nc3nccc(-c4cnn(C(F)F)c4)n3)(C1)C2 [Compound 382, 2-(4-chloro-3-fluorophenoxy)-N-[3-({4-[1-(difluoromethyl)-1H-pyrazol-4-yl]pyrimidin-2-yl}amino)bicyclo[1.1.1]pentan-1-yl]acetamide] as the compound, how does the EC50 read?
Answer: Its EC50 is > 2000 nM.

Question: With CC(=O)Nc1ccc(F)cc1C(=O)NC12CC(NC(=O)COc3ccc(Cl)c(F)c3)(C1)C2 [Compound 765, 2-acetamido-N-{3-[2-(4-chloro-3-fluorophenoxy)acetamido]bicyclo[1.1.1]pentan-1-yl}-5-fluorobenzamide] as the compound, how does the EC50 read?
Answer: Its EC50 is 50 to 250 nM.

Question: Which EC50 does the source give for O=C(COc1ccc(Cl)c(F)c1)NC12CC(NC(=O)c3cc(C(=O)NC4CC(F)(F)C4)ccn3)(C1)C2 [Compound 263, N^2-{3-[2-(4-chloro-3-fluorophenoxy)acetamido]bicyclo[1.1.1]pentan-1-yl}-N^4-(3,3-difluorocyclobutyl)pyridine-2,4-dicarboxamide] here?
Answer: The EC50 was 250 to 1000 nM.

Question: O=C(COc1ccc(Cl)c(F)c1)NC12CC(NC(=O)c3cnc(C(F)F)s3)(C1)C2 [Compound 443, N-{3-[2-(4-chloro-3-fluorophenoxy)acetamido]bicyclo[1.1.1]pentan-1-yl}-2-(difluoromethyl)-1,3-thiazole-5-carboxamide] was tested. Which EC50 did it give?
Answer: The EC50 was < 50 nM.

Question: Which EC50 does the source give for O=C(COc1ccc(Cl)c(F)c1)NC12CC(NC(=O)c3cn[nH]c3)(C1)C2 [Compound 310, N-{3-[2-(4-chloro-3-fluorophenoxy)acetamido]bicyclo[1.1.1]pentan-1-yl}-1H-pyrazole-4-carboxamide] here?
Answer: Its EC50 is > 2000 nM.

Question: With O=C(COc1ccc(Cl)c(F)c1)NC12CCC(NC(=O)c3cc(Cc4ccc(Cl)cc4)no3)(CC1)CC2O (stereo not drawn) [Compound 410, N-{4-[2-(4-chloro-3-fluorophenoxy)acetamido]-3-hydroxybicyclo[2.2.2]octan-1-yl}-3-[(4-chlorophenyl)methyl]-1,2-oxazole-5-carboxamide] as the compound, how does the EC50 read?
Answer: Its EC50 is 50 to 250 nM.

Question: For Cc1ccc(C(=O)NC23CCC(NC(=O)COc4ccc(Cl)c(F)c4)(CC2)CC3O)cn1 (stereo not drawn) [Compound 228, N-{4-[2-(4-chloro-3-fluorophenoxy)acetamido]-2-hydroxybicyclo[2.2.2]octan-1-yl}-6-methylpyridine-3-carboxamide], which EC50 is on record?
Answer: The EC50 was > 2000 nM.

Question: How did the EC50 turn out when O=C(COc1ccc(F)c(F)c1)NC12CC(Nc3cncc(-c4cccnc4)n3)(C1)C2 [Compound 743, 2-(3,4-difluorophenoxy)-N-(3-{[6-(pyridin-3-yl)pyrazin-2-yl]amino}bicyclo[1.1.1]pentan-1-yl)acetamide] was run?
Answer: The EC50 was > 2000 nM.

Question: With O=C(COc1ccc(Cl)c(F)c1)NC12CC(NC(=O)c3cc(CNC(=O)C4CC4)ccn3)(C1)C2 [Compound 391, N-{3-[2-(4-chloro-3-fluorophenoxy)acetamido]bicyclo[1.1.1]pentan-1-yl}-4-{[(cyclopropanecarbonyl)amino]methyl}pyridine-2-carboxamide] as the compound, how does the EC50 read?
Answer: The EC50 was 250 to 1000 nM.

Question: Which EC50 does the source give for Cn1nc(C(F)F)cc1C(=O)NC12CC(NC(=O)COc3ccc(Cl)c(F)c3)(C1)C2 [Compound 365, N-{3-[2-(4-chloro-3-fluorophenoxy)acetamido]bicyclo[1.1.1]pentan-1-yl}-3-(difluoromethyl)-1-methyl-1H-pyrazole-5-carboxamide] here?
Answer: The EC50 was < 50 nM.

Question: For O=C(COc1ccc(Cl)c(F)c1)NC12CC(Nc3nnc(-c4ccc(Cl)cc4)o3)(C1)C2 [Compound 421, 2-(4-chloro-3-fluorophenoxy)-N-(3-{[5-(4-chlorophenyl)-1,3,4-oxadiazol-2-yl]amino}bicyclo[1.1.1]pentan-1-yl)acetamide], which EC50 is on record?
Answer: Its EC50 is 250 to 1000 nM.

Question: Which EC50 does the source give for O=C(COc1ccc(Cl)c(F)c1)NC12CC(NC(=O)c3ccc(-c4ccccc4)cn3)(C1)C2 [Compound 928, N-{3-[2-(4-chloro-3-fluorophenoxy)acetamido]bicyclo[1.1.1]pentan-1-yl}-5-phenylpyridine-2-carboxamide] here?
Answer: The EC50 was 50 to 250 nM.

From patent US10913727B2, “Modulators of the integrated stress pathway” (Calico Life Sciences LLC, priority 2016, dated 2021)
